For this test, the system named is Pseudomonas aeruginosa PAM1001. Kind of test: checkerboard assay (broth microdilution): levofloxacin MIC in presence of efflux pump inhibitor. The format is cell-based. As for the experimental part: For compounds labeled with the prefix ‘M’, potentiation effect is observed by the reduction of the minimum inhibitory concentration of levofloxacin in the presence of the experimental efflux pump inhibitor. The activity of efflux pump inhibitors (EPI) in combination with fluoroquinolones, such as levofloxacin, is assessed by the checkerboard assay (Antimicrobial Combinations. In Antibiotics in Laboratory Medicine, Ed. Victor Lorian, M.D., Fourth edition, 1996, pp 333-338) using broth microdilution method performed as recommended by the National Committee for Clinical Laboratory Standards (1997). Methods for Dilution of Antimicrobial Susceptibility Tests for Bacteria That Grow Aerobically—Fourth Edition; Approved Standard. NCCLS Document M7-A4, Vol 17 No.2). The test organism used is Pseudomonas aeruginosa PAM1001. […] The compounds tabulated below are representative of the described invention.
In these assays, multiple dilutions of two drugs, namely the EPI and levofloxacin, are being tested, alone and in combination, at concentrations equal to, above and below their respective minimal inhibitory concentrations (MICs). In the case of EPI, most of these compounds are devoid of intrinsic antimicrobial activity and are tested up to the maximum concentration of 40 μg/mL. The MIC of levofloxacin against P. aeruginosa PAM1001 is 4 μg/mL.
The EPI tested are readily soluble in water and stock solutions are prepared at a final concentration of 2 mg/mL. Stock solutions are further diluted, according to the needs of a particular assay, in Mueller Hinton Broth (MHB). Stock solution can be stored at −80° C. Quinolones are solubilized according to the instructions of the manufacturers, at a concentration of 1 mg/mL. They are then further diluted in MHB. Stock solution can be stored at −80° C.
The checkerboard assay is performed in microtiter plates. Levofloxacin is diluted in the x axis, each column containing a single concentration of levofloxacin. The EPI is diluted in the y axis, each row containing an equal concentration of EPI. The result of these manipulations is that each well of the microtiter plate contains a unique combination of concentrations of the two agents. Each EPI are tested independently.
The assay is performed in MHB with a final bacterial inoculum of 5×10^5 CFU/mL (from an early-log phase culture). Microtiter plates are incubated during 20 h at 35° C. and are read using a microtiter plate reader (Molecular Devices) at 650 nm as well as visual observation using a microtiterplate reading mirror.

The values that follow come from patent publication US6399629B1, “Efflux pump inhibitors” (priority 1998, dated 2002).

Structures are written as SMILES.

In the case of `NCCC(=O)N[C@H]1CN[C@H](C(=O)N[C@H](CCc2ccccc2)C(=O)Nc2cnc3ccccc3c2)C1` [Compound M6, (2S,4R)-4-[3-(Aminopropionamido])-N-[(1R)-3-phenyl-1-(3-quinolylcarbamoyl)propyl]-2-pyrrolidinecarboxamide], the “Levofloxacin MIC Against P. aerugiuosa PAM1001 in Presence of Efflux Pump Inhibitor (EPI), Minimum Inhibitory Concentration” value runs as follows: (EPI Conc. 0 μg/mL) 4 µg/mL; (EPI Conc. 0.625 μg/mL) 4 µg/mL; (EPI Conc. 1.25 μg/mL) 4 µg/mL; (EPI Conc. 2.5 μg/mL) 4 µg/mL; (EPI Conc. 5 μg/ mL) 4 µg/mL; (EPI Conc. 10 μg/mL) 2 µg/mL. Moreover, the “Levofloxacin MIC Against P. aerugiuosa PAM1001 in Presence of Efflux Pump Inhibitor (EPI), Minimum Inhibitory Concentration” value is, setting by setting: (EPI Conc. 20 μg/mL) 0.06 µg/mL; (EPI Conc. 40 μg/mL) 0.015 µg/mL.

On to `N[C@H]1CN[C@H](C(=O)N[C@H](CCc2ccccc2)C(=O)Nc2cnc3ccccc3c2)C1` [Compound M7], for which the “Levofloxacin MIC Against P. aerugiuosa PAM1001 in Presence of Efflux Pump Inhibitor (EPI), Minimum Inhibitory Concentration” value by setting is: (EPI Conc. 0 μg/mL) 4 µg/mL; (EPI Conc. 0.625 μg/mL) 4 µg/mL; (EPI Conc. 1.25 μg/mL) 4 µg/mL; (EPI Conc. 2.5 μg/mL) 4 µg/mL; (EPI Conc. 5 μg/ mL) 4 µg/mL; (EPI Conc. 10 μg/mL) 4 µg/mL. The “Levofloxacin MIC Against P. aerugiuosa PAM1001 in Presence of Efflux Pump Inhibitor (EPI), Minimum Inhibitory Concentration” value is, setting by setting: (EPI Conc. 20 μg/mL) 4 µg/mL; (EPI Conc. 40 μg/mL) 0.06 µg/mL.

In the case of `CC(C)C[C@@H](NC(=O)[C@@H]1C[C@@H](NC(=O)CN)CN1)C(=O)Nc1cnc2ccccc2c1` [Compound M8], the “Levofloxacin MIC Against P. aerugiuosa PAM1001 in Presence of Efflux Pump Inhibitor (EPI), Minimum Inhibitory Concentration” value was found to be 2 µg/mL (EPI Conc. 0 μg/mL); 2 µg/mL (EPI Conc. 0.625 μg/mL); 2 µg/mL (EPI Conc. 1.25 μg/mL); 2 µg/mL (EPI Conc. 2.5 μg/mL); 2 µg/mL (EPI Conc. 5 μg/ mL); 2 µg/mL (EPI Conc. 10 μg/mL). Besides, the “Levofloxacin MIC Against P. aerugiuosa PAM1001 in Presence of Efflux Pump Inhibitor (EPI), Minimum Inhibitory Concentration” value was 1 µg/mL (EPI Conc. 20 μg/mL) and 0.25 µg/mL (EPI Conc. 40 μg/mL).

Take `CN(C(=O)CN)[C@@H]1CN[C@H](C(=O)N[C@H](CCc2ccccc2)C(=O)Nc2cnc3ccccc3c2)C1` [Compound M9]: the “Levofloxacin MIC Against P. aerugiuosa PAM1001 in Presence of Efflux Pump Inhibitor (EPI), Minimum Inhibitory Concentration” value was 4 µg/mL (EPI Conc. 0 μg/mL); 4 µg/mL (EPI Conc. 0.625 μg/mL); 4 µg/mL (EPI Conc. 1.25 μg/mL); 4 µg/mL (EPI Conc. 2.5 μg/mL); 4 µg/mL (EPI Conc. 5 μg/ mL); 4 µg/mL (EPI Conc. 10 μg/mL). The “Levofloxacin MIC Against P. aerugiuosa PAM1001 in Presence of Efflux Pump Inhibitor (EPI), Minimum Inhibitory Concentration” value turned out to be 2 µg/mL (EPI Conc. 20 μg/mL) and 0.06 µg/mL (EPI Conc. 40 μg/mL).

As to `COc1cc(C)c2ncc(NC(=O)[C@@H](CC(C)C)NC(=O)[C@@H]3C[C@@H](NC(=O)CN)CN3)cc2c1` [Compound M10, (2S,4R)-4-(2-Aminoacetamido)-N-[(1R)-3-3-methyl-1-(6-methoxy-8-methyl-3-quinolylcarbamoyl)butyl]-2-pyrrolidinecarboxamide], the “Levofloxacin MIC Against P. aerugiuosa PAM1001 in Presence of Efflux Pump Inhibitor (EPI), Minimum Inhibitory Concentration” value is, setting by setting: (EPI Conc. 0 μg/mL) 4 µg/mL; (EPI Conc. 0.625 μg/mL) 4 µg/mL; (EPI Conc. 1.25 μg/mL) 4 µg/mL; (EPI Conc. 2.5 μg/mL) 4 µg/mL; (EPI Conc. 5 μg/ mL) 4 µg/mL; (EPI Conc. 10 μg/mL) 4 µg/mL. Also, the “Levofloxacin MIC Against P. aerugiuosa PAM1001 in Presence of Efflux Pump Inhibitor (EPI), Minimum Inhibitory Concentration” value reads like this: (EPI Conc. 20 μg/mL) 1 µg/mL; (EPI Conc. 40 μg/mL) 0.06 µg/mL.

With `CC(C)CC(NC(=O)C1CC(CN)CN1)C(=O)Nc1cnc2ccccc2c1` [Compound M13, (2R,4R)-4-(Aminomethyl)-N-[(1R)-3-methyl-1-quinolylcarbanioyl)bulyl]-2-pyrrolidinecarboxamide], the “Levofloxacin MIC Against P. aerugiuosa PAM1001 in Presence of Efflux Pump Inhibitor (EPI), Minimum Inhibitory Concentration” value by setting is: (EPI Conc. 0 μg/mL) 4 µg/mL; (EPI Conc. 0.625 μg/mL) 4 µg/mL; (EPI Conc. 1.25 μg/mL) 4 µg/mL; (EPI Conc. 2.5 μg/mL) 2 µg/mL; (EPI Conc. 5 μg/ mL) 1 µg/mL; (EPI Conc. 10 μg/mL) 0.06 µg/mL. In addition, the “Levofloxacin MIC Against P. aerugiuosa PAM1001 in Presence of Efflux Pump Inhibitor (EPI), Minimum Inhibitory Concentration” value was found to be 0.06 µg/mL (EPI Conc. 20 μg/mL) and 0.06 µg/mL (EPI Conc. 40 μg/mL).

`CCc1ccc2ncc(NC(=O)[C@@H](CCc3ccccc3)NC(=O)[C@H]3C[C@H](CN)CN3)cc2c1` [Compound M14, (2R,4R)-4-(Aminomethyl)-N-[(1R)-3-phenyl-1-(6-ethyl-3-quiolylcarbamoyl)propyl]-2-pyrrolidinecarboxamide]: the “Levofloxacin MIC Against P. aerugiuosa PAM1001 in Presence of Efflux Pump Inhibitor (EPI), Minimum Inhibitory Concentration” value is 4 µg/mL (EPI Conc. 0 μg/mL); 4 µg/mL (EPI Conc. 0.625 μg/mL); 4 µg/mL (EPI Conc. 1.25 μg/mL); 2 µg/mL (EPI Conc. 2.5 μg/mL); 0.03 µg/mL (EPI Conc. 5 μg/ mL); 0.03 µg/mL (EPI Conc. 10 μg/mL). The “Levofloxacin MIC Against P. aerugiuosa PAM1001 in Presence of Efflux Pump Inhibitor (EPI), Minimum Inhibitory Concentration” value (EPI Conc. 20 μg/mL) is 0.03 µg/mL.

As to `CN(C(=O)[C@@H]1C[C@@H](NC(=O)CN)CN1)[C@H](CCc1ccccc1)C(=O)Nc1cnc2ccccc2c1` [Compound M15, (2S,4R)-4-(2-Aminoacetamido)-N-methyl-N-[(1R)-3-phenyl-1-(3-quinolylcarbamoyl)propyl]-2-pyrrolidiecarboxamide], the “Levofloxacin MIC Against P. aerugiuosa PAM1001 in Presence of Efflux Pump Inhibitor (EPI), Minimum Inhibitory Concentration” value runs as follows: (EPI Conc. 0 μg/mL) 4 µg/mL; (EPI Conc. 0.625 μg/mL) 4 µg/mL; (EPI Conc. 1.25 μg/mL) 4 µg/mL; (EPI Conc. 2.5 μg/mL) 4 µg/mL; (EPI Conc. 5 μg/ mL) 4 µg/mL; (EPI Conc. 10 μg/mL) 1 µg/mL. In addition, the “Levofloxacin MIC Against P. aerugiuosa PAM1001 in Presence of Efflux Pump Inhibitor (EPI), Minimum Inhibitory Concentration” value (EPI Conc. 20 μg/mL) was 0.06 µg/mL and the “Levofloxacin MIC Against P. aerugiuosa PAM1001 in Presence of Efflux Pump Inhibitor (EPI), Minimum Inhibitory Concentration” value (EPI Conc. 40 μg/mL) is 0.015 µg/mL.
